Test results: patent publication US10266497B2 (ABIDE THERAPEUTICS, INC., priority 2017, dated 2019)

What was measured:
MAGL [1] = molecular target: T1, MAGL (Mus musculus, UniProt O35678); test: Mouse brain proteomes from inhibitor treated mice (oral gavage, sacrificed 4 h after administration); format: in vivo; design: mouse brain membrane fraction for mouse assays; from tissue; host or cells: mouse brain (membrane fraction in vitro; brain proteomes of treated C57Bl/6J mice in vivo); conditions: 5 mg/kg oral gavage, brain proteome 4 h after administration, read-out: MAGL % inh. 5 mg/kg (mouse)
T1 sequence (O35678 1-303): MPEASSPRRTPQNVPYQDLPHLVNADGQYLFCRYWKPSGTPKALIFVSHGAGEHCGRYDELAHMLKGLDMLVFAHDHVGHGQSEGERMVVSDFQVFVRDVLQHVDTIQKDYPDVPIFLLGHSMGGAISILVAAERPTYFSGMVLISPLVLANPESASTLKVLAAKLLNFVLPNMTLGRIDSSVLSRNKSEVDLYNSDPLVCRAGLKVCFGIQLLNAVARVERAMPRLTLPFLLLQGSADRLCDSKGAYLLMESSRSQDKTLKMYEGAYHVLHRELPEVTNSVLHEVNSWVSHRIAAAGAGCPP

FAAH [2] = molecular target: T2, FAAH (Homo sapiens, UniProt O00519); test: In vitro competitive activity-based protein profiling, FAAH, human; conditions: for inhibition at 1 µM: read-out: FAAH % inh. 1 μM (human)
T2 sequence (O00519 1-579): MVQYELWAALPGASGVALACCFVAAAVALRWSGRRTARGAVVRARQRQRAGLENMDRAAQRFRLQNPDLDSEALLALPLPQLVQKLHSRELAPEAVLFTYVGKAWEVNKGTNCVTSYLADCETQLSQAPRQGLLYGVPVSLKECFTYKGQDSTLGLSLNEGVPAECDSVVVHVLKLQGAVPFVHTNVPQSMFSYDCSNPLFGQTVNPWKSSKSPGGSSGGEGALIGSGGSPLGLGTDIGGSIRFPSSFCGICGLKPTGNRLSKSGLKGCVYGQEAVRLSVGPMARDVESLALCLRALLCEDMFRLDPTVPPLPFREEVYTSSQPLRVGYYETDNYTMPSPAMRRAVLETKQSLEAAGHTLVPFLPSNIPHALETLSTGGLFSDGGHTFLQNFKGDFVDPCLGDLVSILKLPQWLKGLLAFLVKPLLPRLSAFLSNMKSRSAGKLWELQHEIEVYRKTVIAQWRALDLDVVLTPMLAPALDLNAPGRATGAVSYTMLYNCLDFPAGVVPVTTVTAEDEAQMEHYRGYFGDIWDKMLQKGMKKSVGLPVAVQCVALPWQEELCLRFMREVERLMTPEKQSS

MAGL [3] = molecular target: T3, MAGL (Homo sapiens, UniProt Q99685); test: In vitro competitive activity-based protein profiling, MAGL, human; conditions: for inhibition at 1 µM: read-out: MAGL % inh. 1 μM (human)
T3 sequence (Q99685 1-303): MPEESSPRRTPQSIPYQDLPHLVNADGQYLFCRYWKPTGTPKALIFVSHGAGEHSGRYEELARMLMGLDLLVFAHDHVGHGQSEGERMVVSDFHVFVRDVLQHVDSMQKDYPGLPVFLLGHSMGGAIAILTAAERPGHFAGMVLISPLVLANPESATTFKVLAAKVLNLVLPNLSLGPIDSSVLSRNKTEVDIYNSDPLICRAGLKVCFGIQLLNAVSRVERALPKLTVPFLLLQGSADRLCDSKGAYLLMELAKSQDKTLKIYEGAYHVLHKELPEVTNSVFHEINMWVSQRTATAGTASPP

FAAH [4] = molecular target: T4, FAAH (Mus musculus, UniProt O08914); test: In vitro competitive activity-based protein profiling, FAAH, mouse; conditions: read-out: FAAH % inh. 1 μM (mouse)
T4 sequence (O08914 1-579): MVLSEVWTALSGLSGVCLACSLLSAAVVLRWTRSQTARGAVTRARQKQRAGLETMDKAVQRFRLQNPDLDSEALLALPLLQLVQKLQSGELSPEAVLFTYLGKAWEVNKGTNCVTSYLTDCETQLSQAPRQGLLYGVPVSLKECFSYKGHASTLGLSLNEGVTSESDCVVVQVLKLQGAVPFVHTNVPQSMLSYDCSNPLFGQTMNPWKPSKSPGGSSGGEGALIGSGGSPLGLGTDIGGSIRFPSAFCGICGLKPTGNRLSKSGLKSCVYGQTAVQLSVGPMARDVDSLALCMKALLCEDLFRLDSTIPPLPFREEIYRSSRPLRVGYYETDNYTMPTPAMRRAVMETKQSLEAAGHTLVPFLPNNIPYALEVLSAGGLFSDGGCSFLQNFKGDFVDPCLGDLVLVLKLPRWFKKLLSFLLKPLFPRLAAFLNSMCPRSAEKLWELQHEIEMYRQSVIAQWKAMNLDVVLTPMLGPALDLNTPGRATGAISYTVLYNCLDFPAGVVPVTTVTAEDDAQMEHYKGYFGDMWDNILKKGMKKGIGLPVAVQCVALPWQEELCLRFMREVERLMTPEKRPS
Description: Biological Evaluation In Vitro Competitive Activity-Based Protein Profiling.
Proteomes (mouse brain membrane fraction for mouse assays; human prefrontal cortex membrane fractions for human assays) (50 mL, 1.0 mg/mL total protein concentration) were preincubated with varying concentrations of inhibitors at 37° C. After 30 min, FP-Rh (1.0 mL, 50 mM in DMSO) was added and the mixture was incubated for another 30 min at 37° C. Reactions were quenched with SDS loading buffer (15 μL—4λ) and run on SDS-PAGE.

MAGL [5] = molecular target: T1, MAGL; test: In vitro competitive activity-based protein profiling, MAGL, mouse; conditions: read-out: MAGL % inh. 1 μM (mouse)
FAAH [6] = molecular target: T4, FAAH; test: Mouse brain proteomes from inhibitor treated mice (oral gavage, sacrificed 4 h after administration), FAAH; format: in vivo; design: mouse brain membrane fraction for mouse assays; from tissue; host or cells: mouse brain (membrane fraction in vitro; brain proteomes of treated C57Bl/6J mice in vivo); conditions: 5 mg/kg oral gavage, brain proteome 4 h after administration, read-out: FAAH % inh. 5 mg/kg (mouse)

SMILES	inhibition at 5 mg/kg (MAGL [1]) [%]	inhibition at 1 µM (FAAH [2]) [%]	inhibition at 1 µM (MAGL [3]) [%]	inhibition at 1 µM (FAAH [4]) [%]	inhibition at 1 µM (MAGL [5]) [%]	inhibition at 5 mg/kg (FAAH [6]) [%]	IC50 (FAAH [2]) [nM]	IC50 (MAGL [3]) [nM]
O=C(O)c1nn(C(=O)N2CCC3(CCCN3Cc3cc4ccc(C(F)(F)F)cc4s3)CC2)cc1Cl [Example 139, 4-chloro-1-(1-((6-(trifluoromethyl)benzo[b]thiophen-2-yl)methyl)-1,8-diazaspiro[4.5]decane-8-carbonyl)-1H-pyrazole-3-carboxylic acid]	0 to 25	> 75	> 75	> 75	> 75	0 to 25	–	–
O=C(O)c1nn(C(=O)N2CC3CN(Cc4ccc(N5CCCC5)cc4C(F)(F)F)CC3C2)cc1Cl (stereo not shown) [Example 140, 4-chloro-1-(5-(4-(pyrrolidin-1-yl)-2-(trifluoromethyl)benzyl)octahydro-pyrrolo[3,4-c]pyrrole-2-carbonyl)-1H-pyrazole-3-carboxylic acid]	0 to 25	50 to 75	> 75	50 to 75	> 75	0 to 25	100 to 1000	–
O=C(O)c1nn(C(=O)N2CCC3(CCN(Cc4cc(Cl)ccc4C(F)(F)F)C3)CC2)cc1C(F)(F)F [Example 148, 1-(2-(5-chloro-2-(trifluoromethyl)benzyl)-2,8-diazaspiro[4.5]decane-8-carbonyl)-4-(trifluoromethyl)-1H-pyrazole-3-carboxylic acid]	0 to 25	> 75	> 75	> 75	> 75	25 to 50	100 to 1000	–
O=C(O)c1ccn(C(=O)N2C[C@H]3C[C@H](OCc4cccc(C(F)(F)F)c4)C[C@H]3C2)n1 [Example 157, 1-(trans-5-((3-(trifluoromethyl)benzyl)oxy)octa-hydrocyclopenta[c]pyrrole-2-carbonyl)-1H-pyrazole-3-carboxylic acid]	0 to 25	> 75	> 75	> 75	> 75	0 to 25	100 to 1000	–
O=C(O)c1ccn(C(=O)N2C[C@H]3C[C@H](OCc4cccc(Oc5ccc(Cl)cc5)c4)C[C@H]3C2)n1 [Example 158, 1-(trans-5-((3-(4-chlorophenoxy)benzyl)oxy)octa-hydrocyclopenta[c]pyrrole-2-carbonyl)-1H-pyrazole-3-carboxylic acid]	0 to 25	> 75	> 75	> 75	> 75	0 to 25	–	–
Cc1c(CO[C@H]2C[C@@H]3CN(C(=O)n4ccc(C(=O)O)n4)C[C@@H]3C2)cccc1C(F)(F)F [Example 159, 1-(trans-5-((2-methyl-3-(trifluoromethyl)benzyl)oxy)octa-hydrocyclopenta[c]pyrrole-2-carbonyl)-1H-pyrazole-3-carboxylic acid]	0 to 25	> 75	> 75	> 75	> 75	0 to 25	100 to 1000	–
O=C(O)c1ccn(C(=O)N2CCC3(CCCN3Cc3cc4ccc(C(F)(F)F)cc4s3)CC2)n1 [Example 185, 1-(1-((6-(trifluoromethyl)benzo[b]thiophen-2-yl)methyl)-1,8-diazaspiro[4.5]decane-8-carbonyl)-1H-pyrazole-3-carboxylic acid]	0 to 25	0 to 25	> 75	0 to 25	> 75	0 to 25	–	–
O=C(O)c1ccn(C(=O)N2CCN(Cc3cc4cc(Cl)ccc4s3)CC2)n1 [Example 187, 1-(4-((5-chlorobenzo[b]thio-phen-2-yl)methyl)piperazine-1-carbonyl)-1H-pyrazole-3-carboxylic acid]	0 to 25	25 to 50	> 75	0 to 25	> 75	0 to 25	–	–
Cc1c(CN2CCN(C(=O)n3ccc(C(=O)O)n3)CC2)[nH]c2ccc(Cl)cc12 [Example 188, 1-(4-((5-chloro-3-methyl-1H-indol-2-yl)methyl)piperazine-1-carbonyl)-1H-pyrazole-3-carboxylic acid]	0 to 25	0 to 25	> 75	0 to 25	> 75	0 to 25	–	–
NC(=O)c1ccn(C(=O)N2CCN(Cc3cccc(C(F)(F)F)c3N3CCOCC3)CC2)n1 [Example 199, 1-(4-(2-morpholino-3-(trifluoromethyl)benzyl)piperazine-1-carbonyl)-1H-pyrazole-3-carboxamide]	> 75	> 75	> 75	> 75	> 75	0 to 25	100 to 1000	–
CN(Cc1ccc(C(F)(F)F)cc1N1C2CCC1COC2)C1(C)CCN(C(=O)n2ccc(C(=O)O)n2)CC1 [Example 207, 1-(4-((2-(3-oxa-8-azabicyclo[3.2.1]octan-8-yl)-4-(trifluoromethyl)benzyl)(methyl)amino)-4-methyl-piperidine-1-carbonyl)-1H-pyrazole-3-carboxylic acid]	0 to 25	0 to 25	> 75	0 to 25	> 75	0 to 25	–	–
O=C(O)c1ccn(C(=O)N2CCC3(CCN(Cc4cccc(Oc5ccc(Cl)cc5)c4)C3)CC2)n1 [Example 210, 1-(2-(3-(4-chlorophenoxy)benzyl)-2,8-diazaspiro[4.5]decane-8-carbonyl)-1H-pyrazole-3-carboxylic acid]	0 to 25	> 75	> 75	> 75	> 75	0 to 25	1000 to 10000	100 to 1000
